Test results published in patent US20110250137A1, “RADIOISOTOPE-LABELED LYSINE AND ORNITHINE DERIVATIVES, THEIR USE AND PROCESSES FOR THEIR PREPARATION” (priority 2008, published 2011).
Structures can show the parent of a compound that is named as a salt.

Experiments:
A549 cells [1] = assay: cell competition experiment using 14C-ornithine as tracer; assay type: cell-based, human; settings: 0.1 μCi 14C-ornithine tracer, compound 1 mM, incubation 10 min
Description: (3R)-3-fluoro-L-ornithine-dihydrochloride (31) was used in a cell competition experiment using ^14C-ornithine as tracer.
FIG. 3: The specificity of (3R)-3-fluoro-L-ornithine-dihydrochloride (31) to compete for ^14C-Ornithine uptake was determined in a cell competition experiment in A549 cells. (0.1 μCi ^14C-Ornithine was used as tracer, (3R)-3-fluoro-L-ornithine-dihydrochloride was used at a concentration of 1 mM, incubation period 10 min).

[2] = tested on: A549 (human NSCLC) tumor cells; assay: cell competition experiment, uptake of tracer (38) against excess L-ornithine; assay type: cell-based; settings: 30 min incubation, 0.25 MBq tracer in PBS, L-ornithine 1 mM
Description: (§1) To determine the specificity of (5R)-[^18F]-fluoromethyl-L-ornithine (38), the fluorinated compound was used as tracer in a cell competition experiment in A549 (human NSCLC) as well as H460 (human NSCLC) tumor cells using an excess of L-ornithine (1 mM) for competition.
(§2) FIG. 1: Examination of biological activity of (5R)-[^18F]-fluoromethyl-L-ornithine (38) from in a cell-competition-experiment. (NCI-H460 and A549 cells, 30 min incubation with 0.25 MBq (5R)-[^18F]-fluoromethyl-L-ornithine in PBS-Puffer, concentration of L-ornithine 1 mM).

[3] = tested on: H460 (human NSCLC) tumor cells; assay: as above; assay type: cell-based; settings: 30 min incubation, 0.25 MBq tracer in PBS, L-ornithine 1 mM
Description: as §1, §2

[4] = tested on: PC3 (prostate) tumor cell line; assay: time-dependence of binding of tracer (38) to tumor cell lines; assay type: cell-based; settings: 30 min incubation with 0.25 MBq
Description: In a second experiment, the time-dependence of binding of (5R)-[^18F]-fluoromethyl-L-ornithine to several tumor cell lines was determined using A549, H460 as well as PC3 (prostate) and DU145 (prostate) tumor cell lines. After 30 min incubation with 0.25 MBq up to 5% (PC3 cells) of applied dose were bound to the cells (FIG. 2).
FIG. 2: Binding of (5R)-[^18F]-fluoromethyl-L-ornithine (38) to several tumor cell lines. (A549, H460 (both human NSCLC) as well as PC3 and DU145 (both prostate) tumor cell lines were used and incubated with 0.25 MBq (5R)-[^18F]-fluoromethyl-L-ornithine for up to 30 min. The cell-bound fraction of activity was determined after 10 min, 20 min and 30 min.

[5] = tested on: NCI-H460 (human NSCLC) tumor bearing rats; assay: PET-Imaging in tumor bearing rats; assay type: in vivo, rat
Description: (§3) Animal experiments. (4S)-[^18F]-fluoro-L-ornithine was examined in NCI-H460 (human NSCLC) tumor bearing rats using PET-Imaging. PET images were obtained from 45 min after administration of the radiotracer (7.16 MBq) for 30 min. […] After the PET-imaging study (98 min p.i.) the rat was sacrificed, several organs were removed and the amount of radioactivity in tissues was measured.
FIG. 7: PET-Imaging of (4S)-[^18F]-fluoro-L-ornithine (29) in H460 tumor bearing rats. 7.16 MBq of radioactive tracer was injected i.v. into rats. PET images were obtained using the Inveon PET/CT scanner from 45 min p.i. for 30 min.

[6] = tested on: NCI-H460 (human NSCLC) tumor bearing rats; assay: radioactivity in removed organs after the PET-imaging study (biodistribution); assay type: in vivo, rat; settings: 98 min p.i.
Description: as §3

A549 tumor cells [7] = assay: cell competition experiment, uptake of tracer (29) against excess L-ornithine; assay type: cell-based, human; settings: 0.25 MBq tracer, 1 mM L-ornithine, incubation 30 min
Description: (§4) To determine the specificity of (4S)-[^18F]-fluoro-L-ornithine (29), the fluorinated compound was used as tracer in a cell competition experiment in A549 as well as PC3 tumor cells against an excess of L-Ornithine (1 mM).
(§5) FIG. 4: The specificity of (4S)-[^18F]-fluoro-L-ornithine (29) for uptake into tumor cells was determined in cell competition experiments using A549 as well as PC3 tumor cells. (0.25 MBq of (4S)-[^18F]-fluoro-L-ornithine was used as tracer, an excess of 1 mM L-ornithine was used for saturation of uptake systems, incubation time 30 min).

PC3 cells = assay: time dependence of uptake of tracer (29), cell-bound fraction; assay type: cell-based; settings: 0.25 MBq, 60 min incubation
Description: (§6) In a second experiment, A549 and PC3 cells were incubated with (4S)-[^18F]-fluoro-L-ornithine for up to 60 min and the cell-bound fraction was determined. Approximately 5% of applied dose was taken up by the cells during the 60 min incubation period (FIG. 5).
(§7) FIG. 5: The time dependence of uptake of (4S)-[^18F]-fluoro-L-ornithine(29) was determined. (A549 and PC3 cells were incubated with 0.25 MBq (4S)-[^18F]-fluoro-L-ornithine for up to 60 min and the cell-bound fraction was determined after 10, 20, 30 and 60 min)

A549 tumor cells [8] = assay: retention of activity in tumor cells under efflux conditions; assay type: cell-based, human; settings: A549 cells loaded 30 min with 0.25 MBq, then 30 min in new buffer (efflux conditions)
Description: In a third experiment, the retention of activity in tumor cells was examined. A549 cells were incubated with (4S)-[^18F]-fluoro-L-ornithine for 30 min. After this time, cells were incubated with new buffer (without radiotracer) for up to 30 min. The release of radioactivity into the supernatant as well as the retention inside the cells was examined. It was discovered, that approximately 66% of activity were retained in the tumor cells after 30 min under efflux conditions (FIG. 6).
FIG. 6: Examination of retention of (4S)-[^18F]-fluoro-L-ornithine (29) in A549 tumor cells. A549 cells were loaded with 0.25 MBq (4S)-[^18F]-fluoro-L-ornithine for 30 min in PBS. After washing, the cells were incubated with new buffer (without activity) for additional 10, 20, 30 min. The release of radioactivity into the supernatant as well as the retention inside the cells was determined.

A549 cells [9] = assay: time dependence of uptake of tracer (29), cell-bound fraction; assay type: cell-based, human; settings: 0.25 MBq, 60 min incubation
Description: as §6, §7

PC3 tumor cells = assay: cell competition experiment, uptake of tracer (29) against excess L-ornithine; assay type: cell-based; settings: 0.25 MBq tracer, 1 mM L-ornithine, incubation 30 min
Description: as §4, §5

[10] = Welch et al. 1986; cited from earlier work
[11] = PET from 45 min p.i. for 30 min, 7.16 MBq i.v., H460 tumor

NCC[C@@H](F)[C@H](N)C(=O)O [Example 31, (3R)-3-fluoro-L-ornithine-dihydrochloride]
block of uptake of 14C-ornithine (A549 cells [1]): can block uptake of ^14C-ornithine in A549 cells to a large extent

N[C@@H](C[18F])CC[C@H](N)C(=O)O [Example 38, (5R)-[^18F]-fluoromethyl-L-ornithine]
uptake of tracer blockable by excess of L-ornithine [2]: blockable by excess of L-ornithine | uptake of tracer blockable by excess of L-ornithine [3]: blockable by excess of L-ornithine | applied dose bound to the cells [4]: up to 5 % of applied dose

NC[C@@H]([18F])C[C@H](N)C(=O)O [Example 29, (4S)-[^18F]-fluoro-L-ornithine]
injected dose per gram tumor by ROI analyses [5, 11]: up to 2.2 % injected dose per gram | tumor visualization in PET images [5, 11]: very well visualized | defluorination in vivo, uptake of released [F18]-fluoride in the bones ([5]; later time points of PET study): Some partial defluorination | radioactivity in blood ([6]; blood): 0.38 % ID/g | radioactivity in bone ([6]; bone): 2.08 % ID/g | radioactivity in brain ([6]; brain): 0.24 % ID/g | radioactivity in heart ([6]; heart): 0.44 % ID/g | radioactivity in kidney ([6]; kidney): 1.18 % ID/g | radioactivity in liver ([6]; liver): 0.39 % ID/g | radioactivity in lung ([6]; lung): 0.44 % ID/g | radioactivity in pancreas ([6]; pancreas): 2.47 % ID/g | radioactivity in tumor ([6]; tumor): 1.43 % ID/g | uptake of tracer blockable by excess of ornithine (A549 tumor cells [7]): blockable by excess of ornithine | applied dose taken up by the cells (PC3 cells): Approximately 5 % of applied dose | activity retained in the tumor cells (A549 tumor cells [8]): approximately 66% | applied dose taken up by the cells (A549 cells [9]): Approximately 5 % of applied dose | uptake of tracer blockable by excess of ornithine (PC3 tumor cells): blockable by excess of ornithine

[^18F]fluoro-putricine
in-vivo release of free [18F]fluoride [10]: relatively high in-vivo release of free [^18F]fluoride
